One test relates to NMD3 mRNA. Kind of test: NMD3 mRNA level in cells. In kind it is cell-based, human. As for the experimental part: (§1) FIG. 6. Portimine A inhibits S phase entry in Jurkat cells. Portimine A downregulates NMD3 at protein level but upregulates in mRNA level in cells, as well as some essential apoptosis proteins. […] Protein degradation of p53, Mcl1, Bid, Bim, Noxa can be rescued by MG132 or Epoxomicin. (B) NMD3 mRNA increased after PA treatment, but not ePA control compound. Jurkat cells were treated with indicated compounds for 24 hr; Cells were then fixed and perform Propidium Iodide staining.
(§2) • 1) Portimine A and its functional analogs show stereo-selective acute toxicity in cancer cells (FIG. 1). […] (B) Structure of portimine related analogs: phenyl-portimine A (Ph-PA, 36) and epi-portimine A (ePA, 38). Structure of fully functionalized portimine A-based epimeric probe pair: portimine A-diazirine-alkyne (PA-DA, 35-2) and epi-portimine A-diazirine-alkyne (ePA-DA, 35-1). (C) Cell viability analysis of portimine A and analogs. Jurkat cells were treated with increasing concentrations of portimine A and analogs for 24 hours. All presented data as mean of biological replicated experiments (n=3). […] Jurkat cells were treated with portimine A or analogs for 12 hours at 10 nM. […] Cell lysates were fractionated by sucrose gradient (5-50%) and each fraction were analyzed by western blot. eIF6 levels increase in 60S subunit fraction and decrease in ribosome-free fractions after PA treatment. […]

The next test concerns MD-MBA-231. Briefly: Broad cell line profiling, MD-MBA-231. In kind it is cell-based. Conditions: Homo sapiens; MD-MBA-231, TNBC Breast Adenocarcinoma; read-out: PA IC50. An excerpt: • A panel of human and mouse cancer cell types used to assess the breadth of PA activity, including multiple therapy resistant metastatic mesenchymal tumor cell lines and primary glioblastoma patient-derived metastatic stem/tumor initiating cell populations.

In a further test the test system is Bcl-xl. Briefly: Bcl-xl protein level in cells. In kind it is cell-based, human. As for the experimental part:
as §1, §2

For another test, the system named is Jurkat. Briefly: Washout experiment, Cell Titerglo cell viability. In kind it is cell-based, human. Conditions: for IC50: Homo sapiens, Jurkat 50 k per well. On the technique in general: In ATP-based viability assays light output follows the ATP content of the culture.

Read-outs that look alike come from different tables or passages of the source.

On to `C=CC1=C[C@@H]2[C@@H]3O[C@]4(CC[C@H](O4)C(C)C[C@@H](O)C3=O)CC(O)C3=NCC[C@@]32CC1` (stereo partly shown) [PA, portimine A], for which the “NMD3 mRNA” value with NMD3 mRNA is recorded as “increased”. In addition, the half-maximal inhibitory concentration (IC50) (as a rule, the midpoint of a concentration-inhibition curve) in the test on MD-MBA-231 was 0.68 nM; with Jurkat (read-out: IC50 after 30 min exposure, washout at 30 min, total 36 hours), ~5 nM; with Jurkat (washout at 4 hr, total 36 hours, read-out: IC50 after 4 hr exposure), ~2 nM. For the same compound, the “Bcl-xl protein level after treatment” value in the test with Bcl-xl is recorded as “downregulated”. For the same compound, the “exposure resulting in minimal loss of potency” value with Jurkat (compound washout, cell-based target engagement) is < 1 h. In addition, in the test with Jurkat (washout after 30 min, total 36 hours), the “decrease in IC50 on removing compound after 30 min” value is reported as ~ 5 fold.

These data come from US20260242390A1, “TOTAL SYNTHESES OF PORTIMINE A AND ANALOGUES THEREOF AS SMALL MOLECULE MODULATORS OF NMD3” (priority 2023, published 2026).
